In ChEMBL document CHEMBL3751764, “Synthesis and in vitro antiproliferative activity of novel pyrazolo[3,4-d]pyrimidine derivatives” (Medchemcomm, 2015):
Activity calls are given as the source filed them. No cut-off for these calls is given here.

Experiments:
MCF7 = assay: Cytotoxicity against human MCF7 cells after 72 hrs by SRB assay; assay type: functional, cell-based; conditions: MCF7, 72 h
[1] = molecular target: T1, Vascular endothelial growth factor receptor 2 (Homo sapiens, UniProt P35968); assay: Inhibition of human VEGFR2 at 10 uM after 20 to 40 mins by liquid scintillation counting analysis in presence of […]; set-up: scale not given: the % may be the effect or the level left
[2] = molecular target: Receptor-type tyrosine-protein kinase FLT3 (Homo sapiens, UniProt P36888); assay: Inhibition of Flt3 (unknown origin) using poly(Glu:Tyr) as substrate by ELISA-based method
[3] = molecular target: T1, Vascular endothelial growth factor receptor 2; assay: Inhibition of VEGFR2 (unknown origin) using poly(Glu:Tyr) as substrate by ELISA-based method
[4] = molecular target: Epidermal growth factor receptor (Homo sapiens) (UniProt P00533); assay: Inhibition of human EGFR at 10 uM after 20 to 40 mins by liquid scintillation counting analysis in presence of […]
[5] = molecular target: T1, Vascular endothelial growth factor receptor 2; assay: Inhibition of VEGFR2 (unknown origin) using poly(Glu,Ala,Tyr) (6:3:1) as substrate after 20 mins by ELISA
[6] = molecular target: Mast/stem cell growth factor receptor Kit (Homo sapiens, UniProt P10721); assay: Inhibition of N-terminal GST-tagged recombinant kit (unknown origin) using poly(Glu:Tyr) as substrate by ELISA-based method
[7] = molecular target: T1, Vascular endothelial growth factor receptor 2; assay: Inhibition of VEGFR2 (unknown origin) autophosphorylation after 2 hrs by cell-based assay
[8] = molecular target: Aurora kinase A (Homo sapiens) (UniProt O14965); assay: Inhibition of human aurora A at 10 uM after 20 to 40 mins by liquid scintillation counting analysis in presence of […]
[9] = molecular target: Cyclin-dependent kinase 1 (Homo sapiens, UniProt P06493); assay: Inhibition of CDK1 (unknown origin) using […] as substrate after 60 mins by TR-FRET assay
Aurora kinase A = Aurora kinase A (Homo sapiens, UniProt O14965); assay: Inhibition of Aurora A (unknown origin) using poly(Glu:Tyr) as substrate by ELISA-based method
[10] = Cytotoxicity against human HL60 cells; assay type: functional, cell-based; conditions: HL-60

T1 sequence (P35968 whole entry): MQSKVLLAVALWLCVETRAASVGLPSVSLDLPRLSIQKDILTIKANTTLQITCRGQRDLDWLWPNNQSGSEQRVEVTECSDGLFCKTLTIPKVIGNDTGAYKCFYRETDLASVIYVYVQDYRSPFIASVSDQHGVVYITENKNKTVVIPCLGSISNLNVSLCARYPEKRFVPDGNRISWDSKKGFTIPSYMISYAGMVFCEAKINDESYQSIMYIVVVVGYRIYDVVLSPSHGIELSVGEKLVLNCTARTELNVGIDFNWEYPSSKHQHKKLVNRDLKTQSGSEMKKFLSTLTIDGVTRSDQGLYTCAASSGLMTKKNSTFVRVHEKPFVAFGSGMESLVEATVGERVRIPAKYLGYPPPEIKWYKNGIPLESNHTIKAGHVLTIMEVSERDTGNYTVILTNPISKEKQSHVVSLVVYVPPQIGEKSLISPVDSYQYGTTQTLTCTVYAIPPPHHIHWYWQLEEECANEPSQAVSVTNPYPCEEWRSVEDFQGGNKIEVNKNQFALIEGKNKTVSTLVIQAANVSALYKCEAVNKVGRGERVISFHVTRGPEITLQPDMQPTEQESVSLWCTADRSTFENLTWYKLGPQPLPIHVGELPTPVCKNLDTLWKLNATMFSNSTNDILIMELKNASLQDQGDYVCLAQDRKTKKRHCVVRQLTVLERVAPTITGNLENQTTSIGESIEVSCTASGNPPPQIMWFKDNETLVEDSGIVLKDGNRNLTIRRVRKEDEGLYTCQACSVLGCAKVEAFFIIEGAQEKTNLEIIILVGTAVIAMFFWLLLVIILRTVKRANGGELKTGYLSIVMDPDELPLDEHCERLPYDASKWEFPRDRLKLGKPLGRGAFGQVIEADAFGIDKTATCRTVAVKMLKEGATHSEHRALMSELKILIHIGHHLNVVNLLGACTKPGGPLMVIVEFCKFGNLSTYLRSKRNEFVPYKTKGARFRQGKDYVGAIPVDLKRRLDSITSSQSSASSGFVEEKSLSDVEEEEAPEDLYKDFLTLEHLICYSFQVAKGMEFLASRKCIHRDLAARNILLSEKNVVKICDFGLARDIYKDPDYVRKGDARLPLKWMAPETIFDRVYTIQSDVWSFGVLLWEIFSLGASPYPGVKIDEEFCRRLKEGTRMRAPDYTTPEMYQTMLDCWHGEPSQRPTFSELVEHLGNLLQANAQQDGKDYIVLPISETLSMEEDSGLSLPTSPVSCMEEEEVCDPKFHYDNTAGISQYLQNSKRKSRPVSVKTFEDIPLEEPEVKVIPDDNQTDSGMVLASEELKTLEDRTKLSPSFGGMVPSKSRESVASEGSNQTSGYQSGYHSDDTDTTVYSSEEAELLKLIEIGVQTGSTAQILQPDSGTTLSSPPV
Epidermal growth factor receptor (Homo sapiens), sequence (P00533 whole entry): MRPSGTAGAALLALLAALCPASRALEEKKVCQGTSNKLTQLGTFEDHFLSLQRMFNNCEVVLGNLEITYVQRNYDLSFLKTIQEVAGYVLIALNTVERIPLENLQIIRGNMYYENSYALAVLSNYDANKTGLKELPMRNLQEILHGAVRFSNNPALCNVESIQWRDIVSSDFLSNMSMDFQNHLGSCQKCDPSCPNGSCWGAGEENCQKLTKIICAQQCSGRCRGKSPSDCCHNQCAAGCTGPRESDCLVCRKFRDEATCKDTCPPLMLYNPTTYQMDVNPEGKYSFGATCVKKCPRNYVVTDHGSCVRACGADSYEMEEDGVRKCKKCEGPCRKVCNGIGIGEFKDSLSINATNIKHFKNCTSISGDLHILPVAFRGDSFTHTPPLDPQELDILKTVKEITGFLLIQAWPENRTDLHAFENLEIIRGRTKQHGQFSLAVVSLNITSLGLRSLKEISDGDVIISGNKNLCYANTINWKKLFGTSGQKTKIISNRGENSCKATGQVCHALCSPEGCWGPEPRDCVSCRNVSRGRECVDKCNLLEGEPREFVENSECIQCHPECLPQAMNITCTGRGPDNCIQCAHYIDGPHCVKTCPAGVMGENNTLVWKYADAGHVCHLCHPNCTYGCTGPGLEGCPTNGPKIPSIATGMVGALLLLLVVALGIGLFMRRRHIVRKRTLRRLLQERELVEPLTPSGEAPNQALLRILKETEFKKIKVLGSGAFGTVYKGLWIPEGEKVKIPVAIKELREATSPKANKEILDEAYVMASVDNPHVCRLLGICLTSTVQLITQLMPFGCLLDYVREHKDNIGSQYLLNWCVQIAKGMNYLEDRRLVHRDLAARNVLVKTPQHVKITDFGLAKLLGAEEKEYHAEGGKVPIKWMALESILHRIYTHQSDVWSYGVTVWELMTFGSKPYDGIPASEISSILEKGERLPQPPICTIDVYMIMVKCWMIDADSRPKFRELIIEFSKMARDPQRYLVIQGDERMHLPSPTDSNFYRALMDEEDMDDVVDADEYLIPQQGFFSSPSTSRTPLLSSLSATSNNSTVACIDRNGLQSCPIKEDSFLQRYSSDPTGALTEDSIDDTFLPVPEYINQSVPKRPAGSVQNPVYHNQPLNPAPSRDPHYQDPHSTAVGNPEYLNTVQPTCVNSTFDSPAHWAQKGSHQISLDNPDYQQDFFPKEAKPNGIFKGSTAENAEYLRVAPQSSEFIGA
Mast/stem cell growth factor receptor Kit, sequence (P10721 whole entry): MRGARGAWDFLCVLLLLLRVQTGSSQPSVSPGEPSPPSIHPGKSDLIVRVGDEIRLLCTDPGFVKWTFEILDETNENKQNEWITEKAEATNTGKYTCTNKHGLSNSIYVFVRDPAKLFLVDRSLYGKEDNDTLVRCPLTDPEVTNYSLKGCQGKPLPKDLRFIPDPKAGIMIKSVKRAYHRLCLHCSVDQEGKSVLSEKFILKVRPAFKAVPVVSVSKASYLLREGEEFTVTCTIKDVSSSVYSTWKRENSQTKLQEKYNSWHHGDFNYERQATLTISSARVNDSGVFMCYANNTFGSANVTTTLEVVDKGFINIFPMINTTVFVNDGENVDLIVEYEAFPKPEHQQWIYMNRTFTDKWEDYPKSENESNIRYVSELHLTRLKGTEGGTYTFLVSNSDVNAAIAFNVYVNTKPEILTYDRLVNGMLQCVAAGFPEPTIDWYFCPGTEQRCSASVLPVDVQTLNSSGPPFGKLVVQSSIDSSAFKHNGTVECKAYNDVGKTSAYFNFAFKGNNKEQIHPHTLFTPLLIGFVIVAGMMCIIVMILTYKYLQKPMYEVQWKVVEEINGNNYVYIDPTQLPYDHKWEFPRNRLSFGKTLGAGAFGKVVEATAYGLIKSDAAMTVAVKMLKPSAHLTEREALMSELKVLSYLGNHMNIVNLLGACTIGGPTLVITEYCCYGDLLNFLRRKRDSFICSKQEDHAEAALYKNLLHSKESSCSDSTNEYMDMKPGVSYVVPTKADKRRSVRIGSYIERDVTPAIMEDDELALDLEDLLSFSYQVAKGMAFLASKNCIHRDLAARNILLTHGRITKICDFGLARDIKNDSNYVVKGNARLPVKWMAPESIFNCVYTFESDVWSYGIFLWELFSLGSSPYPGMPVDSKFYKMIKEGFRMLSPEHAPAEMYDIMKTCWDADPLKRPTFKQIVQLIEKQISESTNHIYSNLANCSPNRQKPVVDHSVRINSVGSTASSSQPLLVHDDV
Aurora kinase A (Homo sapiens), sequence (O14965 whole entry): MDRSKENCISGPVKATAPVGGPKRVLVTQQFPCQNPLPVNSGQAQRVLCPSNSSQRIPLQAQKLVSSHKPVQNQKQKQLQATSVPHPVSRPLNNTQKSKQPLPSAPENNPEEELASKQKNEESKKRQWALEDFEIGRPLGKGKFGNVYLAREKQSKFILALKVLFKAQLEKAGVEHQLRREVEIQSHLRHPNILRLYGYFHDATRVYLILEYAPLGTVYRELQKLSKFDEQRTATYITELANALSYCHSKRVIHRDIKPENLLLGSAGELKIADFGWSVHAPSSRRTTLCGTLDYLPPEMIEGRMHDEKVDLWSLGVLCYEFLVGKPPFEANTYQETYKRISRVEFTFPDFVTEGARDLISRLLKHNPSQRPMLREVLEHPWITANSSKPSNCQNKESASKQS
Aurora kinase A, sequence (O14965 whole entry): as above
Receptor-type tyrosine-protein kinase FLT3, sequence (P36888 whole entry): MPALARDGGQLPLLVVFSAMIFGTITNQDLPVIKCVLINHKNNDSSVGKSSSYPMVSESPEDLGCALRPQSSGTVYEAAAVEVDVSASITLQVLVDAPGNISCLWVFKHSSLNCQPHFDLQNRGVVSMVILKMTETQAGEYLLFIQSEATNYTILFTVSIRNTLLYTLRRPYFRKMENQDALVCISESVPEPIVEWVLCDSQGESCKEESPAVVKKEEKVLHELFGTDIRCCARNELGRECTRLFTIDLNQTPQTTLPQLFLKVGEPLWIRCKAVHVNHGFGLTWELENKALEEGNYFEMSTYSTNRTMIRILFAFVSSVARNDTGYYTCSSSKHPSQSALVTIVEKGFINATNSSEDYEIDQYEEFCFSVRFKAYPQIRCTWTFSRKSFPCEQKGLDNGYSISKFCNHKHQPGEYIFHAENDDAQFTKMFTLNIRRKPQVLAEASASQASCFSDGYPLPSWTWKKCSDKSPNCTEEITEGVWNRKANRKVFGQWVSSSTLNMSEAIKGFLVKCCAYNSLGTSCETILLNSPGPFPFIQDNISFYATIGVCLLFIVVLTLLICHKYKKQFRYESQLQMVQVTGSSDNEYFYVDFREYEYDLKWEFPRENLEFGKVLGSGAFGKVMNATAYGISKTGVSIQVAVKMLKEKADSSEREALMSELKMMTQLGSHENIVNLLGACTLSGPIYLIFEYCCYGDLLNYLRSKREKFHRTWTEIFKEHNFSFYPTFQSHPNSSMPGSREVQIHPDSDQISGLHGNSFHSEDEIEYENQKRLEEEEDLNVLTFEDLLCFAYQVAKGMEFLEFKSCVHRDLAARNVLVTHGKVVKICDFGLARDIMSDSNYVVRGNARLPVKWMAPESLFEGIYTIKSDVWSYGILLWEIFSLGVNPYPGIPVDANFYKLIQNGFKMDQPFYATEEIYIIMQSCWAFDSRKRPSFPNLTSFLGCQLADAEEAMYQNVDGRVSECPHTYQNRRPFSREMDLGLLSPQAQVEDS

Activity [1] [%]	Compound	IC50 (MCF7) [µM]	other results
-5	O=c1sc2cc(Nc3ncnc4c3cnn4-c3ccccc3)ccc2n1Cc1ccc(Cl)cc1Cl	44	–
1	O=C(Nc1ccc(Nc2ncnc3c2cnn3-c2ccc(Cl)cc2)cc1)Nc1ccccc1Cl	9.05	–
-5	O=C(Nc1ccc(Nc2ncnc3c2cnn3-c2ccccc2)cc1)Nc1ccccc1Cl	55.1	–
2	O=c1sc2cc(Nc3ncnc4c3cnn4-c3ccccc3)ccc2n1Cc1cccc(Br)c1	46.1	–
–	O=C(Nc1ccc(Oc2ncnc3[nH]ncc23)cc1)Nc1ccc(Cl)c(C(F)(F)F)c1	–	IC50 [2]: 0.004 µM; IC50 [3]: 2.25 µM
–	O=C(Nc1ccc(Cl)c(C(F)(F)F)c1)c1ccc(Nc2ncnc3c2cnn3-c2ccccc2)cc1	75.9	–
2	O=C(Nc1cccc(Cl)c1)c1ccc(Nc2ncnc3c2cnn3-c2ccccc2)cc1	1.12	inhibition [4]: inactive
–	Cc1cc(F)c(Nc2ncnc3cc(OCc4ccccc4)ccc23)cc1O	–	IC50 [5]: < 0.002 µM
1	O=c1sc2cc(Nc3ncnc4c3cnn4-c3ccccc3)ccc2n1Cc1ccc(Cl)c(Cl)c1	1.6	–
1	O=C(Nc1ccccc1)Nc1ccc(Oc2ncnc3c2cnn3-c2ccccc2)cc1	> 100	–
-3	O=C(Nc1ccc(Nc2ncnc3c2cnn3-c2ccccc2)cc1)Nc1cccc(Br)c1	36.3	–
–	O=C(Nc1ccc(OC(F)(F)F)cc1)c1sccc1NCc1ccnc2ccccc12 [OSI-930]	–	IC50 [6]: 0.08 µM
–	Cc1ccc(C(=O)Nc2cccc(C(F)(F)F)c2)cc1Nc1nc(-c2cccnc2)nc2c1cnn2C	–	EC50 [7]: 4.2 µM
-3	O=C(Nc1ccc(Nc2ncnc3c2cnn3-c2ccccc2)cc1)Nc1cccc(Cl)c1	4.2	inhibition [8]: inactive
–	CC(C)n1ncc2cnc(Nc3cc(C(N)=O)n(C)c3)nc21	–	IC50 [9]: 0.024 µM; IC50 (Aurora kinase A): 0.017 µM
–	Cc1cc2nc(Nc3ncnc4c3cnn4-c3ccccc3)sc2cc1C	> 100	–
–	N=c1c2cnn(-c3ccccc3)c2ncn1-c1ccc(-c2ccc(C(F)(F)F)cc2)s1	–	IC50 [10]: 0.21 µM
–	Clc1ccc2nc(Nc3ncnc4c3cnn4-c3ccccc3)sc2c1	> 100	–
1	O=c1sc2cc(Nc3ncnc4c3cnn4-c3ccc(Cl)cc3)ccc2n1Cc1ccc(Cl)cc1Cl	> 100	–
-8	O=C(Nc1ccccc1Cl)c1ccc(Nc2ncnc3c2cnn3-c2ccc(Cl)cc2)cc1	> 100	–
-3	O=C(Nc1ccccc1)Nc1ccc(Oc2ncnc3c2cnn3-c2ccc(Cl)cc2)cc1	82.5	–
-4	O=C(NC1CCCCC1)c1ccc(Nc2ncnc3c2cnn3-c2ccc(Cl)cc2)cc1	> 100	–
3	Cc1ccccc1NC(=O)Nc1ccc(Nc2ncnc3c2cnn3-c2ccc(Cl)cc2)cc1	3.15	–
–	Clc1ccc(COc2ccc(Nc3ncnc4c3cnn4-c3ccc(Cl)cc3)cc2)cc1	> 100	–
–	O=C(Nc1ccc(Cl)c(C(F)(F)F)c1)c1ccc(Nc2ncnc3c2cnn3-c2ccc(Cl)cc2)cc1	4.92	–
–	Clc1ccc(COc2ccc(Nc3ncnc4c3cnn4-c3ccccc3)cc2)cc1	4.36	–
–	Clc1ccc(-n2ncc3c(Nc4nc5ccc(Cl)cc5s4)ncnc32)cc1	85.6	–
